Measured values as given in article PMC11042500 (Journal of medicinal chemistry, 2020).
Where two headings read alike, the source gives them in different places. Each block holds one compound with its values, some of them ahead of it.

How the values were obtained:
[1] = test system: L6 rat myoblast cells; test: Oxygen consumption rate; details: for uncoupling activity (in words): OCR in L6 rat myoblast cells
[2] = test system: STAM mouse model of NASH; details: STZ-induced mouse model of NASH; cited from earlier work
[3] = test system: STAM mouse model of NASH; test: STAM; type: in vivo, mice; details: SHS4121705 25 mg kg−1 d−1 in food
[4] = Core body temperature after acute oral dose; type: in vivo; details: acute oral dose 5, 20, 50 mg/kg, up to 4 h, C57BL/6 male mice; listed as SHS4121705
[5] = use in humans; cited from earlier work

SMILES: Oc1nccnc1Nc1ccccc1F [16a, 3-((2-Fluorophenyl)amino)pyrazin-2-ol]
- uncoupling activity (in words) [1]: inactive

SMILES: Oc1nc2nonc2nc1Nc1ccccc1F [12a, 6-((2-Fluorophenyl)amino)-[1,2,5]oxadiazolo[3,4-b]pyrazin-5-ol]
- loss of potency ([1]; OCR EC50 of 12a compared with parent diamine uncoupler): 40 ×

SMILES: Fc1cccc(Nc2nc3nonc3nc2Nc2ccccc2F)c1 [compound 9]
- fibrosis score [2]: reduced
- inflammation score [2]: reduced
- liver triglyceride levels [2]: lowered

SMILES: COc1cccc(-c2ccc(Nc3nccnc3O)cc2)c1 [16g, 3-((3′-Methoxy-[1,1′-biphenyl]-4-yl)amino)pyrazin-2-ol]
- uncoupling activity (in words) [1]: inactive

- effect on core body temperature [4]: no effect
SMILES: Oc1nc2nonc2nc1Nc1ccc(OC(F)(F)F)cc1 [12i, 6-((4-(Trifluoromethoxy)phenyl)amino)-[1,2,5]oxadiazolo[3,4-b]pyrazin-5-ol]
- ballooning score ([3]; 21 days): 0.25 ± 0.16
- inflammation score ([3]; 21 days): 2.38 ± 0.18
- steatosis score ([3]; 21 days): 0 ± 0
- NAS score (NAFLD activity score) ([3]; liver, day 21): 2.63 ± 0.18

SMILES: O=[N+]([O-])c1ccc(O)c([N+](=O)[O-])c1 [DNP, 2,4-dinitrophenol]
- increase in metabolism [5]: > 50%

SMILES: Oc1nc2nonc2nc1Nc1ccc(C(F)(F)F)c(F)c1 [12v, 6-((3-Fluoro-4-(trifluoromethyl)phenyl)amino)-[1,2,5]oxadiazolo[3,4-b]pyrazin-5-ol]
- fold less potent than 12i ([1]; OCR EC50 relative to 12i): > 2 fold

SMILES: Oc1nccnc1Nc1ccc(-c2ccc(F)cc2)cc1 [16h, 3-((4′-Fluoro-[1,1′-biphenyl]-4-yl)amino)pyrazin-2-ol]
- uncoupling activity (in words) [1]: inactive

SMILES: COc1nc2nonc2nc1Nc1ccc(OC(F)(F)F)cc1 [compound 13, 6-Methoxy-N-(4-(trifluoromethoxy)phenyl)-[1,2,5]oxadiazolo[3,4-b]pyrazin-5-amine]
- uncoupling activity (in words) [1]: significantly abrogated

SMILES: CCCCCCCCCCc1ccc(Nc2nccnc2O)cc1 [16b, 3-((4-Decylphenyl)amino)pyrazin-2-ol]
- uncoupling activity (in words) [1]: inactive

SMILES: CN(c1ccccc1F)c1nc2nonc2nc1O [12ae, 6-((2-Fluorophenyl)(methyl)amino)-[1,2,5]oxadiazolo[3,4-b]pyrazin-5-ol]
- uncoupling activity (in words) [1]: completely devoid of uncoupling activity
